Data: patent US20240174681A1, “SALT AND CRYSTALLINE FORMS OF FGFR4 INHIBITOR AND USES THEREOF” (BETTA PHARMACEUTICALS CO., LTD, priority 2020, published 2024)
Entries after “also recorded” stand apart in the source; their conditions may differ. Like-named read-outs stand apart in the source and are kept apart here. Each block holds one compound with its values, some of them ahead of it.

Assays:
[1] = Stability determination of crystal forms (HPLC); format: physicochemical; details: for stability (in words): HPLC detection results
Protocol: Samples and experimental preparation: The amorphous form of the compound represented by Formula I and the crystal form A, maleate crystal form 1, maleate crystal form 2, phosphate crystal form 1 and adipate crystal form 1 of the compound represented by Formula I in appropriate amounts were tested for stability. Samples were taken at different time points separately for HPLC. The packages were polyester/aluminum/polyamide/polyethylene pharmaceutical composite films and bags.

[2] = Hygroscopicity determination by dynamic vapor sorption (DVS); format: physicochemical; details: for Weight Gain for Vapor Absorption: DVS, 0% RH to 80% RH; for hygroscopicity (in words): under the test conditions
Protocol: The hygroscopicity of samples (which are multiple crystal forms shown in Table 14) was determined by a dynamic vapor sorption (DVS) meter. The samples were detected for changes of weight gains due to vapor absorption within the range of 0% RH (relative humidity) to 80% RH.

[3] = test system: human liver cancer cells Hep3B xenograft; experiment: Hep3B xenograft tumor model; format: in vivo
Protocol: BALB/c nu/nu female mice were inoculated with 5×10^6 human liver cancer cells Hep3B subcutaneously in the right anterior scapula, where a volume ratio of a cell suspension to matrigel was 1:1 (0.2/mL/mouse). When an average tumor volume was 158 mm^3, the mice were randomly grouped according to a tumor size. The treatment group was administered with a solution of a to-be-tested compound prepared with an appropriate solvent, and the solvent control group was administered with a blank solvent. During treatment, the tumor volume was measured twice a week, and the tumor weight was determined after a last dose to determine the activity of the compound. A tumor growth inhibition (TGI) rate (%) was calculated by comparing the tumor volumes and weights of the treatment group and the solvent control group. Body weight measurement, as the routine determination of toxicity, has the same frequency as tumor volume measurement.

[4] = test system: human liver cancer cells Hep3B; experiment: Cell proliferation assay (CellTiter-Glo); format: cell-based; details: 96 hrs incubation, CTG, read-out: IC50 of the Compound on Hep3B Cells
Protocol: The effect of the compound of the present disclosure on the proliferation of human liver cancer cells Hep3B cells was evaluated by an in vitro cell assay. CELL TITER-GLO (CTG) luminescence was used as a detection method in the assay, which can detect the number of living cells by quantitatively determining ATP. Since ATP participates in a variety of enzymatic reactions in organisms, the ATP is an indicator of the metabolism of living cells and its content directly reflects the number of cells and the cell state of cells. In the assay, CellTiter-Glo™ reagent was added to a cell culture medium to measure a luminescence value, the luminescence value is directly proportional to the amount of ATP, and ATP is positively correlated to the number of living cells, so cell viability can be inspected by detecting the ATP content.
A bottle of Hep3B cells in a logarithmic growth phase was taken, the cells were counted after digestion and resuspension and then inoculated into a 96-well plate after the cell density was adjusted, each well inoculated with 180 μL (1500 cells/well), and the plate was incubated for 24 hrs in a 37° C., 5% CO2 incubator. • (2) Administration to cells […]
An inhibition rate was calculated according to the luminescence value. […]

[5] = Pharmacokinetic test of crystal forms in SD rats, oral; format: in vivo; details: 50 mg/kg, suspension in 0.5% CMC-Na
Protocol: Drug preparation: A maleate crystal form 1, a phosphate crystal form 1 and an adipate crystal form 1 were weighed separately, and each crystal form was prepared in a 0.5% CMC-Na solution into a to-be-tested suspension, where the final concentration of each compound was 5 mg/mL.
Test animals: SD rats were randomly divided into three groups, each group including three male rats, and the three groups were called a maleate group, a phosphate group and an adipate group, separately.
Administration and sample collection: The SD rats in each group were subjected to oral administration at a dosage of 50 mg/kg. Blood collection time: Blood samples were collected in EDTA-K pre-anticoagulation tubes after 0 h (before administration), 0.25 h, 0.5 h, 1 h, 2 hrs, 4 hrs, 7 hrs and 24 hrs. The plasma in each sample was isolated by being centrifuged at 4000 rpm for 10 min at 4° C. Plasma samples were collected and stored at −80° C. for analytical use. The concentration of a to-be-tested compound in plasma samples was analyzed by AB4000 API LC/MS in combination with HPLC, and the pharmacokinetic parameter of the to-be-tested compound was obtained by analyzing the plasma concentration-time data of each animal.

[6] = 40° C./75% RH, packaged, day 5, listed as Crystal form A of the compound represented by Formula I
[7] = 40° C./75% RH, packaged, day 20
[8] = day 0, listed as Crystal form A of the compound represented by Formula I
[9] = 40° C./75% RH, packaged, day 12

SMILES: C=CC(=O)N[C@H]1CCOC[C@H]1Nc1ncc2c(n1)-c1cc(C)cnc1N(c1c(Cl)c(OC)cc(OC)c1Cl)C2 [Amorphous form of the compound represented by Formula I]
- API Content ([1]; 25° C./75% RH, open, day 10): 97.21%
- Changed Maximum Single Impurity ([1]; 25° C./75% RH, open, day 10): 1.26%
- API Content ([1]; 40° C., open, day 10): 97.45%
- Changed Maximum Single Impurity ([1]; 40° C., open, day 10): 1.15%
- stability (in words) [1]: poor stability
- API Content ([1]; day 0): 98.30%
- Changed Maximum Single Impurity ([1]; day 0): 0.41%
- Weight Gain for Vapor Absorption [2]: 6.53%
- hygroscopicity (in words) [2]: hygroscopic

SMILES: C=CC(=O)N[C@H]1CCOC[C@H]1Nc1ncc2c(n1)-c1cc(C)cnc1N(c1c(Cl)c(OC)cc(OC)c1Cl)C2 [Compound represented by Formula I, N-((3S,4S)-3-((6-(2,6-dichloro-3,5-dimethoxyphenyl)-9-methyl-5,6-dihydropyrimido[5,4-c][1,8]naphthyridin-2-yl)amino)tetrahydro-2H-pyran-4-yl)acrylamide]
- inhibition rate on the tumor volume growth of Hep3B ([3]; 50 mg/kg BID×14): 73.02%
- inhibition rate on the tumor weight growth of HepB ([3]; 50 mg/kg BID×14): 84.76%
- inhibition rate on the tumor volume growth of Hep3B ([3]; 100 mg/kg BID×14): 86.26%
- inhibition rate on the tumor weight growth of HepB ([3]; 100 mg/kg BID×14): 92.27%
- inhibition rate on the tumor volume growth of Hep3B ([3]; 200 mg/kg BID×14): 90.26%
- inhibition rate on the tumor weight growth of HepB ([3]; 200 mg/kg BID×14): 98.15%
- body weight loss (routine determination of toxicity) ([3]; during the entire assay, treatment doses 50-200 mg/kg BID×14): none of the animals administered with the compound represented by Formula I showed an obvious weight loss
- IC50 [4]: 5.1 nM

SMILES: C=CC(=O)N[C@H]1CCOC[C@H]1Nc1ncc2c(n1)-c1cc(C)cnc1N(c1c(Cl)c(OC)cc(OC)c1Cl)C2 [Crystal form A]
- API Content ([1]; 25° C./92.5% RH, open, day 20): 99.32%
- Changed Maximum Single Impurity ([1]; 25° C./92.5% RH, open, day 20): 0.17%
- API Content [1, 6]: 99.25%
- Changed Maximum Single Impurity [1, 6]: 0.19%
- API Content [1, 7]: 99.47%
- Changed Maximum Single Impurity [1, 7]: 0.17%
- API Content ([1]; 60° C., open, day 12): 99.14%
- Changed Maximum Single Impurity ([1]; 60° C., open, day 12): 0.24%
- stability (in words) [1]: relatively good stability
- API Content [1, 8]: 99.16%
- Changed Maximum Single Impurity [1, 8]: 0.19%
- Weight Gain for Vapor Absorption [2]: 0.03%
- hygroscopicity (in words) [2]: non-hygroscopic; also recorded: low hygroscopicity

- Weight Gain for Vapor Absorption [2]: 0.07%
- hygroscopicity (in words) [2]: non-hygroscopic
SMILES: C=CC(=O)NC1CCOCC1Nc1ncc2c(n1)-c1cc(C)cnc1N(c1c(Cl)c(OC)cc(OC)c1Cl)C2.O=C(O)C(O)C(O)C(=O)O [L-tartrate crystal form 1]

- API Content ([1]; 40° C./75% RH, packaged, day 5): 99.48%
- Changed Maximum Single Impurity ([1]; 40° C./75% RH, packaged, day 5): 0.26%
- API Content [1, 9]: 99.34%
- Changed Maximum Single Impurity [1, 9]: 0.28%
- stability (in words) [1]: relatively good stability
- API Content ([1]; day 0): 99.62%
- Changed Maximum Single Impurity ([1]; day 0): 0.2%
- hygroscopicity (in words) [2]: low hygroscopicity
- AUClast [5]: 8355 ng·h/mL
- Cmax [5]: 2713 ng/mL
SMILES: C=CC(=O)NC1CCOCC1Nc1ncc2c(n1)-c1cc(C)cnc1N(c1c(Cl)c(OC)cc(OC)c1Cl)C2.O=C(O)C=CC(=O)O (centres unmarked) [Maleate crystal form 1]

- API Content ([1]; 25° C./75% RH, open, day 10): 98.61%
- Changed Maximum Single Impurity ([1]; 25° C./75% RH, open, day 10): 1.1%
- API Content ([1]; 40° C., open, day 10): 99.32%
- Changed Maximum Single Impurity ([1]; 40° C., open, day 10): 0.48%
- stability (in words) [1]: poor stability
- API Content ([1]; day 0): 99.63%
- Changed Maximum Single Impurity ([1]; day 0): 0.29%
- Weight Gain for Vapor Absorption [2]: 6.64%
- hygroscopicity (in words) [2]: hygroscopic
SMILES: C=CC(=O)NC1CCOCC1Nc1ncc2c(n1)-c1cc(C)cnc1N(c1c(Cl)c(OC)cc(OC)c1Cl)C2.O=C(O)C=CC(=O)O (centres unmarked) [Maleate crystal form 2]

SMILES: C=CC(=O)N[C@H]1CCOC[C@H]1Nc1ncc2c(n1)-c1cc(C)cnc1N(c1c(Cl)c(OC)cc(OC)c1Cl)C2 [Phosphate crystal form 1]
- API Content ([1]; 40° C./75% RH, packaged, day 5): 99.39%
- Changed Maximum Single Impurity ([1]; 40° C./75% RH, packaged, day 5): 0.15%
- API Content [1, 9]: 99.56%
- Changed Maximum Single Impurity [1, 9]: 0.11%
- stability (in words) [1]: relatively good stability
- API Content ([1]; day 0): 99.32%
- Changed Maximum Single Impurity ([1]; day 0): 0.15%
- Weight Gain for Vapor Absorption [2]: 0.19%
- hygroscopicity (in words) [2]: non-hygroscopic; also recorded: low hygroscopicity
- AUC(0-t) ([5]; male, rat, plasma): 6890 ng·h/mL
- Cmax ([5]; male, rat, plasma, read-out: Cmax): 1140 ng/mL
